Our source for the IC50 values is patent US9012443B2 (Amgen Inc., priority 2011, dated 2015).

One data set addresses Nav 1.5 (Homo sapiens (Human), UniProt Q14524). The experiment in a line: Nav 1.5 in vitro PX assay (PatchXpress whole cell voltage clamp). The class given is cell-based. As to conditions: 293 cells stably transfected with Nav 1.5; second part of table; read-out: Nav1.5 PX IC50. The method, then: Nav 1.5 In Vitro PX Assay
293 cells stably transfected with Nav 1.5 were recorded in whole cell voltage clamp mode with the PatchXpress automated electrophysiology system according the manufacturer's specifications (Molecular Devices, LLC, Sunnyvale, Calif.). Cells were held at a holding potential of −50 mV to inactivate sodium channels. To elicit sodium currents the voltage was changed to −120 mV to recover a portion of the channels, followed by delivery of test pulses of 20 msec duration to 0 mV, at 0.1 Hz. A single concentration of test compound was applied to cells for a duration of 5 minutes. Peak sodium current was measured at the end of the compound addition period to determine percent inhibition. A minimum of two cells were tested per concentration. IC50 curves were fitted to percent inhibition as a function of concentration.

A further data set addresses Nav 1.7 (Homo sapiens (Human), UniProt Q15858). The experiment in a line: Nav 1.7 in vitro PX assay (PatchXpress whole cell voltage clamp). Type of data set: cell-based. The conditions noted are these: 293 cells, human Nav1.7, partially inactivated state; read-out: Nav1.7 PX IC50 IP. An outline of the steps: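 HEK293 cells stably expressing human Nav1.7, whole-cell voltage clamp on PatchXpress, held at potential giving 20–50% inactivation; current elicited by 20 msec pulse to −10 mV.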

Chain of Nav 1.5 (Q14524 whole entry): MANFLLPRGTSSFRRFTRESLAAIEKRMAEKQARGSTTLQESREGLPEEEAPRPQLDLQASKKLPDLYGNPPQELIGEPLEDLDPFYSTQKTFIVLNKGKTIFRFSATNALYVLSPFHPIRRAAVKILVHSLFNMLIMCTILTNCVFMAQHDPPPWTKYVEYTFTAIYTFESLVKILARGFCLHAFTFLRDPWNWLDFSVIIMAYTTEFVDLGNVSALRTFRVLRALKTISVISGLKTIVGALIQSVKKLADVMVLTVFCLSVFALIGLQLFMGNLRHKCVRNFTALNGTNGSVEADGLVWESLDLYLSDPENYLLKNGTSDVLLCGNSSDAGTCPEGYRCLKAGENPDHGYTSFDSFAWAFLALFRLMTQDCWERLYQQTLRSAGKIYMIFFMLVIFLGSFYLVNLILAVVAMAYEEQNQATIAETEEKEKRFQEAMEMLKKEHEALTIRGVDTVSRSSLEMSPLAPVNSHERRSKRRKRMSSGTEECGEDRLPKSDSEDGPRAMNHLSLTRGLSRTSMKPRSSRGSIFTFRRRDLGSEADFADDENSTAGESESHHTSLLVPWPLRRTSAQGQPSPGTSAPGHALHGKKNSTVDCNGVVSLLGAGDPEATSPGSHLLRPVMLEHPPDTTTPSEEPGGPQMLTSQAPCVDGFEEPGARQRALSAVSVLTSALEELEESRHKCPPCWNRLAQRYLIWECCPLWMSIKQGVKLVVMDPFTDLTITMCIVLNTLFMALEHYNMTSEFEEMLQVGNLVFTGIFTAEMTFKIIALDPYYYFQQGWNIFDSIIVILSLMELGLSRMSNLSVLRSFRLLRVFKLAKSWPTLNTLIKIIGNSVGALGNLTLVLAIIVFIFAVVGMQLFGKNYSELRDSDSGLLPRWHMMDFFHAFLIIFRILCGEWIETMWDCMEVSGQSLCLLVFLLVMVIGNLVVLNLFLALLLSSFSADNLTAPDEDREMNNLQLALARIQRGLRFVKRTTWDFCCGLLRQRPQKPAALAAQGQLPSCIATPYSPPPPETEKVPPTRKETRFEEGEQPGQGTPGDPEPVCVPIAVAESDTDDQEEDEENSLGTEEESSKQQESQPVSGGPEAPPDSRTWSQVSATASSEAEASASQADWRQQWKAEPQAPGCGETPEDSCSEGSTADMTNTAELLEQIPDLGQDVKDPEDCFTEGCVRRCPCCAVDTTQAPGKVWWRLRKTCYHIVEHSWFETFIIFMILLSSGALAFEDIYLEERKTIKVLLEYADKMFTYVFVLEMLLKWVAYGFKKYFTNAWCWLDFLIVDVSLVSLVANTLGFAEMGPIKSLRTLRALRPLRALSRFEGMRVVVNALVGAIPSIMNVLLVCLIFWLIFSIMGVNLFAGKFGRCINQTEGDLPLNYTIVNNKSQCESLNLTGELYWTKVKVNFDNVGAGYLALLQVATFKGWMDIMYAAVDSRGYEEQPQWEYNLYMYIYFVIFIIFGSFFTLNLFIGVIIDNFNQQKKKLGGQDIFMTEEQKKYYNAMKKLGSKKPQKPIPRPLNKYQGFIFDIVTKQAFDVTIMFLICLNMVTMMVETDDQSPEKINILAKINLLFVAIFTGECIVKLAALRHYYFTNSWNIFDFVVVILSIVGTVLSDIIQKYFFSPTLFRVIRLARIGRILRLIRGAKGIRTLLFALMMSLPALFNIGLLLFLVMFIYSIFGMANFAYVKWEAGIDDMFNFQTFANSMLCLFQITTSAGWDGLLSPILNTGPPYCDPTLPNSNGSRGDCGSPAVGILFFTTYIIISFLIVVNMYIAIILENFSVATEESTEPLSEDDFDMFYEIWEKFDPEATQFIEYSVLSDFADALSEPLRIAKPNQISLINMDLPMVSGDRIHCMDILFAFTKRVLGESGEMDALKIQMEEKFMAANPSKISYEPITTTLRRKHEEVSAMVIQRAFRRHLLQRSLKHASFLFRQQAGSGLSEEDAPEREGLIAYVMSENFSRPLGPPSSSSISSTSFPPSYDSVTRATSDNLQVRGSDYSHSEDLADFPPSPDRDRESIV
Chain of Nav 1.7 (Q15858 whole entry): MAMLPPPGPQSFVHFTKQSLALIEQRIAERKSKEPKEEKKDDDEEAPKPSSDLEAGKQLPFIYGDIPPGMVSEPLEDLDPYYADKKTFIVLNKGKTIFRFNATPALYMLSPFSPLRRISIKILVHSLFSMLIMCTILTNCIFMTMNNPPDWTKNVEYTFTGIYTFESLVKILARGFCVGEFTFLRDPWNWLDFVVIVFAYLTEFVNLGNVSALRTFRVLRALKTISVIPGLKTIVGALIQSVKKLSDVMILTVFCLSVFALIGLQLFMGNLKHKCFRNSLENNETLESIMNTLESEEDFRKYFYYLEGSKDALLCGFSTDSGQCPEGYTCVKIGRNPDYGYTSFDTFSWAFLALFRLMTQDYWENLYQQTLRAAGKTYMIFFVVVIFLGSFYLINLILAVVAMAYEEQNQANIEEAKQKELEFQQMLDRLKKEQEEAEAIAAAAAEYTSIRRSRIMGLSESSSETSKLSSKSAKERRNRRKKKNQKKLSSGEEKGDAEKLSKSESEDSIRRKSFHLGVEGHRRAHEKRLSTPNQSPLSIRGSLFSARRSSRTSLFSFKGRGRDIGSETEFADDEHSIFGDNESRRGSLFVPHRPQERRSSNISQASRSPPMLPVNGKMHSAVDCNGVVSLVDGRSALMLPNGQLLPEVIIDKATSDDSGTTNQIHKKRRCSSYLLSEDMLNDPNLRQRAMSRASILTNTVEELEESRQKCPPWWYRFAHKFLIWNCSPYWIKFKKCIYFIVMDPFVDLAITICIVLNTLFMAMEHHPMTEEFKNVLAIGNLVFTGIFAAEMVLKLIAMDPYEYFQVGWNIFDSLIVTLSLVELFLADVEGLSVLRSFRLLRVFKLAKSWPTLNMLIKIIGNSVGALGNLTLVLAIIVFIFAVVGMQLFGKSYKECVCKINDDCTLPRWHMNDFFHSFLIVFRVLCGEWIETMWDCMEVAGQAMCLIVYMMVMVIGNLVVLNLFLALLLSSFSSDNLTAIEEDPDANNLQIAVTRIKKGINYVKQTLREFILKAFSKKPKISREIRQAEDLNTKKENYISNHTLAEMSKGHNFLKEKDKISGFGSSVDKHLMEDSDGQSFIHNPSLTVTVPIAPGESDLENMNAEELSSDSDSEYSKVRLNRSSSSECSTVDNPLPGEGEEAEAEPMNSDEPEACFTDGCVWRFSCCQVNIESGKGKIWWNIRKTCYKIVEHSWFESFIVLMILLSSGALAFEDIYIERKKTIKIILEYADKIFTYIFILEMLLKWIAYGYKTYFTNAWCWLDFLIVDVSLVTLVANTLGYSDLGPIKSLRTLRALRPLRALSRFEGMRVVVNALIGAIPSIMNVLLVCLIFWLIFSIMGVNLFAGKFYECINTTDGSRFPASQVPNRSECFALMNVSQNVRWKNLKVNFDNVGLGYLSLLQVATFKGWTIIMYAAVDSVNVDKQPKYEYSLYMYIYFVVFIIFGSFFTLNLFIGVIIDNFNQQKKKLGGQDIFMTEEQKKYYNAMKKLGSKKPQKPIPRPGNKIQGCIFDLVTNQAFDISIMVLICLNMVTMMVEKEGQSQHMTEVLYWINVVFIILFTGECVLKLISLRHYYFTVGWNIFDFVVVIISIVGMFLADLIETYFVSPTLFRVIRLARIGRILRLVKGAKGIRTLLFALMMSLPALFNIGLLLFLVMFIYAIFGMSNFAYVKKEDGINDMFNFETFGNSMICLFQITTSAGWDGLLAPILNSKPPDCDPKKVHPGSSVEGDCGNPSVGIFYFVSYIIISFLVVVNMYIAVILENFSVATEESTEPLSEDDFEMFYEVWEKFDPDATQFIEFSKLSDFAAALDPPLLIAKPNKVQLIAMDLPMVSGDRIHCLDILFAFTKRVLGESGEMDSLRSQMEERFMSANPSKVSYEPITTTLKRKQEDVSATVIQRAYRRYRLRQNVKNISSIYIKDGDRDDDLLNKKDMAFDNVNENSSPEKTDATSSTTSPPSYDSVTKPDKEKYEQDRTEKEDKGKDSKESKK

`COc1cc(F)ccc1-c1ncc(F)c2cc(S(=O)(=O)Nc3ncns3)ccc12` [Example 394, 4-FLUORO-1-(4-FLUORO-2-METHOXYPHENYL)-N-(1,2,4-THIADIAZOL-5-YL)ISOQUINOLINE-6-SULFONAMIDE]: the IC50 on Nav 1.5 was above 30000 nM; at Nav 1.7, 338 nM.

On to `N#CCOc1ccccc1-c1ncc(F)c2cc(S(=O)(=O)Nc3nccs3)ccc12` [Example 398, 1-(2-(CYANOMETHOXY)PHENYL)-4-FLUORO-N-(THIAZOL-2-YL)ISOQUINOLINE-6-SULFONAMIDE], for which the IC50 at Nav 1.5 is above 30000 nM; on Nav 1.7, 197 nM.

As to `COc1cc(F)ccc1-c1nccc2cc(S(=O)(=O)Nc3nccs3)ccc12` [Example 405, 1-(4-FLUORO-2-METHOXYPHENYL)-N-(THIAZOL-2-YL)ISOQUINOLINE-6-SULFONAMIDE], the figures for the IC50 on Nav 1.5 and at Nav 1.7 were above 30000 nM and 442 nM, respectively.

As to `COc1ccccc1-c1nccc2cc(S(=O)(=O)Nc3nccs3)ccc12` [Example 406, 1-(2-METHOXYPHENYL)-N-(THIAZOL-2-YL)ISOQUINOLINE-6-SULFONAMIDE], the 50% inhibitory concentration (IC50) at Nav 1.5 was above 30000 nM; on Nav 1.7 it was 456 nM.

As for `COc1cc(C(F)(F)F)ccc1-c1nccc2cc(S(=O)(=O)Nc3nc(Cl)cs3)ccc12` [Example 419, N-(4-CHLOROTHIAZOL-2-YL)-1-(2-METHOXY-4-(TRIFLUOROMETHYL)PHENYL)ISOQUINOLINE-6-SULFONAMIDE], the IC50 is above 30000 nM on Nav 1.5 and 272 nM on Nav 1.7.

For `COc1cc(C(F)(F)F)ccc1-c1nccc2cc(S(=O)(=O)Nc3nc(C#N)cs3)ccc12` [Example 421, N-(4-CYANOTHIAZOL-2-YL)-1-(2-METHOXY-4-(TRIFLUOROMETHYL)PHENYL)ISOQUINOLINE-6-SULFONAMIDE], the IC50 was above 30000 nM on Nav 1.5 and 786 nM at Nav 1.7.

For the compound `COc1cc(-c2ccccc2C)ccc1-c1nccc2cc(S(=O)(=O)Nc3ccncn3)ccc12` [Example 441, 1-(3-METHOXY-2′-METHYL-[1,1′-BIPHENYL]-4-YL)-N-(PYRIMIDIN-4-YL)ISOQUINOLINE-6-SULFONAMIDE], the half-maximal inhibitory concentration (IC50) is above 30000 nM at Nav 1.5 and 77 nM at Nav 1.7.

As for `COc1cc(-c2cccc(C)c2)ccc1-c1nccc2cc(S(=O)(=O)Nc3ccncn3)ccc12` [Example 442, 1-(3-METHOXY-3′-METHYL-[1,1′-BIPHENYL]-4-YL)-N-(PYRIMIDIN-4-YL)ISOQUINOLINE-6-SULFONAMIDE], the half-inhibitory concentration (IC50) is above 30000 nM on Nav 1.5 and 87 nM on Nav 1.7.

On to `COc1cc(-c2ccc(C)cc2)ccc1-c1nccc2cc(S(=O)(=O)Nc3ccncn3)ccc12` [Example 443, 1-(3-METHOXY-4′-METHYL-[1,1′-BIPHENYL]-4-YL)-N-(PYRIMIDIN-4-YL)ISOQUINOLINE-6-SULFONAMIDE], for which the figures for the 50% inhibitory concentration (IC50) on Nav 1.5 and on Nav 1.7 were above 30000 nM and 280 nM, respectively.

With `COc1cc(-c2cccc(F)c2F)ccc1-c1nccc2cc(S(=O)(=O)Nc3ccncn3)ccc12` [Example 444, 1-(2′,3′-difluoro-3-methoxy-[1,1′-biphenyl]-4-yl)-N-(pyrimidin-4-yl)isoquinoline-6-sulfonamide], the half-inhibitory concentration (IC50) at Nav 1.5 is above 30000 nM; on Nav 1.7, 185 nM.

Regarding `COc1cc(-c2ccc(F)cc2F)ccc1-c1nccc2cc(S(=O)(=O)Nc3ccncn3)ccc12` [Example 445, 1-(2′,4′-DIFLUORO-3-METHOXY-[1,1′-BIPHENYL]-4-YL)-N-(PYRIMIDIN-4-YL)ISOQUINOLINE-6-SULFONAMIDE], the IC50 on Nav 1.5 is above 30000 nM; at Nav 1.7, 218 nM.

Regarding `COc1cc(-c2cc(F)ccc2F)ccc1-c1nccc2cc(S(=O)(=O)Nc3ccncn3)ccc12` [Example 446, 1-(2′,5′-DIFLUORO-3-METHOXY-[1,1′-BIPHENYL]-4-YL)-N-(PYRIMIDIN-4-YL)ISOQUINOLINE-6-SULFONAMIDE], the half-inhibitory concentration (IC50) is above 30000 nM at Nav 1.5 and 152 nM on Nav 1.7.

For the compound `COc1cc(-c2c(F)cccc2F)ccc1-c1nccc2cc(S(=O)(=O)Nc3ccncn3)ccc12` [Example 447, 1-(2′,6′-DIFLUORO-3-METHOXY-[1,1′-BIPHENYL]-4-YL)-N-(PYRIMIDIN-4-YL)ISOQUINOLINE-6-SULFONAMIDE], the figures for the IC50 at Nav 1.5 and on Nav 1.7 were above 30000 nM and 237 nM, respectively.

As to `COc1cc(-c2ccc(F)c(F)c2)ccc1-c1nccc2cc(S(=O)(=O)Nc3ccncn3)ccc12` [Example 448, 1-(3′,4′-DIFLUORO-3-METHOXY-[1,1′-BIPHENYL]-4-YL)-N-(PYRIMIDIN-4-YL)ISOQUINOLINE-6-SULFONAMIDE], the IC50 at Nav 1.5 is above 30000 nM; on Nav 1.7, 38 nM.

In the case of `COc1cc(-c2cc(F)cc(F)c2)ccc1-c1nccc2cc(S(=O)(=O)Nc3ccncn3)ccc12` [Example 449, 1-(3′,5′-DIFLUORO-3-METHOXY-[1,1′-BIPHENYL]-4-YL)-N-(PYRIMIDIN-4-YL)ISOQUINOLINE-6-SULFONAMIDE], the values for the IC50 at Nav 1.5 and on Nav 1.7 were above 30000 nM and 34 nM, respectively.

Consider `COc1cc(C(F)F)c(OC)cc1-c1nccc2cc(S(=O)(=O)Nc3nccs3)ccc12` [Example 452, 1-(4-(DIFLUOROMETHYL)-2,5-DIMETHOXYPHENYL)-N-(THIAZOL-2-YL)ISOQUINOLINE-6-SULFONAMIDE], for which the IC50 on Nav 1.5 is above 30000 nM; on Nav 1.7, 284 nM.

Turning to `COc1cc(C(F)F)c(C2CC2)cc1-c1nccc2cc(S(=O)(=O)Nc3ccncn3)ccc12` [Example 459, 1-(5-CYCLOPROPYL-4-(DIFLUOROMETHYL)-2-METHOXYPHENYL)-N-(PYRIMIDIN-4-YL)ISOQUINOLINE-6-SULFONAMIDE], the IC50 was above 30000 nM at Nav 1.5 and 532 nM at Nav 1.7.

As for `COc1cc(Cl)ccc1-c1ccc(-c2nccc3cc(S(=O)(=O)Nc4ccncn4)ccc23)c(OC)c1` [Example 460, 1-(4′-CHLORO-2′,3-DIMETHOXY-[1,1′-BIPHENYL]-4-YL)-N-(PYRIMIDIN-4-YL)ISOQUINOLINE-6-SULFONAMIDE], the 50% inhibitory concentration (IC50) on Nav 1.5 is above 30000 nM; on Nav 1.7 it was 106 nM.

Regarding `COc1cc(Oc2ccc(F)cc2)ccc1-c1nccc2cc(S(=O)(=O)Nc3ccncn3)ccc12` [Example 462, 1-(4-(4-FLUOROPHENOXY)-2-METHOXYPHENYL)-N-(PYRIMIDIN-4-YL)ISOQUINOLINE-6-SULFONAMIDE], the concentration for half-maximal inhibition (IC50) on Nav 1.5 was above 30000 nM; on Nav 1.7, 203 nM.

For the compound `COc1cc(Oc2cccc(F)c2)ccc1-c1nccc2cc(S(=O)(=O)Nc3ccncn3)ccc12` [Example 464, 1-(4-(3-FLUOROPHENOXY)-2-METHOXYPHENYL)-N-(PYRIMIDIN-4-YL)ISOQUINOLINE-6-SULFONAMIDE], the IC50 is above 30000 nM on Nav 1.5 and 380 nM on Nav 1.7.

In the case of `COc1ccccc1-c1ccc(-c2nccc3cc(S(=O)(=O)Nc4ccncn4)ccc23)c(OC)c1` [Example 466, 1-(2′,3-DIMETHOXY-[1,1′-BIPHENYL]-4-YL)-N-(PYRIMIDIN-4-YL)ISOQUINOLINE-6-SULFONAMIDE], the results for the IC50 at Nav 1.5 and on Nav 1.7 were above 30000 nM and 227 nM, respectively.

`COc1cccc(-c2ccc(-c3nccc4cc(S(=O)(=O)Nc5ccncn5)ccc34)c(OC)c2)c1` [Example 467, 1-(3,3′-DIMETHOXY-[1,1′-BIPHENYL]-4-YL)-N-(PYRIMIDIN-4-YL)ISOQUINOLINE-6-SULFONAMIDE]: the concentration for half-maximal inhibition (IC50) at Nav 1.5 was above 30000 nM; on Nav 1.7, 204 nM.

Take `COc1ccc(-c2ccc(-c3nccc4cc(S(=O)(=O)Nc5ccncn5)ccc34)c(OC)c2)cc1` [Example 468, 1-(3,4′-DIMETHOXY-[1,1′-BIPHENYL]-4-YL)-N-(PYRIMIDIN-4-YL)ISOQUINOLINE-6-SULFONAMIDE]: the values for the IC50 on Nav 1.5 and at Nav 1.7 were above 30000 nM and 359 nM, respectively.
